Values joined by “and” are separate entries in the source; they are usually repeats but may differ in a detail not shown here. Identical values can stand only once. Where a SMILES comes first, the peptide text is derived from it. [ ]: non-standard residue; d: D form. The star is where a group is joined. dPhe(3,4-Cl2) = N[C@H](Cc1ccc(Cl)c(Cl)c1)C(=O)O; dPhe(4-CH2NH2) = NCc1ccc(C[C@@H](N)C(=O)O)cc1; dPhe(4-Cl) = N[C@H](Cc1ccc(Cl)cc1)C(=O)O; dPhe(4-F) = N[C@H](Cc1ccc(F)cc1)C(=O)O; d2Nal = N[C@H](Cc1ccc2ccccc2c1)C(=O)O; d2Thi = N[C@H](Cc1cccs1)C(=O)O; NH(3-picolyl) = c1cncc(CN*)c1; NH(4-picolyl) = c1cc(CN*)ccn1; N(CH2CH2)2NH = C1CN(*)CCN1; dNle = CCCC[C@@H](N)C(=O)O; Morpholide = C1CN(*)CCO1; Piperidide = C1CCN(*)CC1; NHBn = c1ccc(CN*)cc1
How the values were obtained:
[1] = biological target: T1, cloned human kappa (hKOR) receptor (Homo sapiens, UniProt P41145); assay: biochemical; assay type: binding; details: for μ/κ Ratio (binding affinity for KOR versus MOR): Ki MOR / Ki KOR; for Ki: read-out: Ki KOR
T1 construct: expressed in transfected cells; host or cells: HN9.10 (mouse hippocampal neuroblastoma), stably transfected
T1 sequence (P41145 whole entry): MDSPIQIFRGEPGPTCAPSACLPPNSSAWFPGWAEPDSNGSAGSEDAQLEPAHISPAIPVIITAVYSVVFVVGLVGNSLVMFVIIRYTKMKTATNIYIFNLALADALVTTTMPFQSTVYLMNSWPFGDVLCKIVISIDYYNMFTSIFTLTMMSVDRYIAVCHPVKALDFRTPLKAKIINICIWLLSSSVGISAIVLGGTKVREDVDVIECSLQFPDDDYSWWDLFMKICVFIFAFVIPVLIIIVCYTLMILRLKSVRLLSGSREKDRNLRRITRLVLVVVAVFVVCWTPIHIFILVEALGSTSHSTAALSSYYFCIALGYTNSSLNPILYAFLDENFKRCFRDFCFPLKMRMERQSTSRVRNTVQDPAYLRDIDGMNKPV

[2] = biological target: T2, cloned human mu opioid (hMOR) receptor (Homo sapiens, UniProt P35372); assay: Competition binding at cloned hMOR, displacement of 3H-DAMGO; details: hMOR stably expressed in HN.9.10 cells, read-out: Ki MOR
T2 construct: expressed in transfected cells; host or cells: HN9.10 (mouse hippocampal neuroblastoma), stably transfected
T2 sequence (P35372 whole entry): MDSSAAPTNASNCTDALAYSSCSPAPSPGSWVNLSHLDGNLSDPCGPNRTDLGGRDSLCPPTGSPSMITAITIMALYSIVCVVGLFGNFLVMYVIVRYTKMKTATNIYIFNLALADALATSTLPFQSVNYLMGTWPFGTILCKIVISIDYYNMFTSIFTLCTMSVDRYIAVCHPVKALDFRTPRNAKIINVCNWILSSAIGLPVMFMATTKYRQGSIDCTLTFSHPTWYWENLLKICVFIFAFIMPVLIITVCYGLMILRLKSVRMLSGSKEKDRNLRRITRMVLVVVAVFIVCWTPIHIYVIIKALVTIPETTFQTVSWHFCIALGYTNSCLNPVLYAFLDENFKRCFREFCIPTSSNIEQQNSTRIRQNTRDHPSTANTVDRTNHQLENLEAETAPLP

conscious male ICR mice = assay: Mouse acetic acid writhing test (WT); assay type: in vivo; details: for WT-ED50: i.v., 5 minutes before acetic acid i.p., writhes over 15 minutes; for % Antinociception 1 hr / % Antinociception 2 hr: submaximal effective dose i.v., percentage of the activity found at -5 min; for % Antinociception 1 hr: 60 min pretreatment; for % Antinociception 2 hr: 120 min pretreatment
Protocol: Selected peptides that are identified in Tables A-G have been further specifically subjected to in vivo testing for determination of duration of action of their opioid properties, and the results are reported in Table H hereinafter. The peptide numbers correspond to those in the earlier tables and the figures with regard to μ/K ratio are simply carried over for reference purposes. The in vivo testing is carried out using a mouse writhing test (WT) that is well-suited for determining the length of duration of antinociceptive biological activity. This test is described in detail in an article by G. A. Bentley et al., Br. J. Phamac., 73:325-332, 1981, and it employs conscious male ICR mice which are purchased from Harlan and which weigh between 20 and 30 grams. The mice are fasted for 12 to 16 hours prior to beginning the test. The nociceptive behavior, i.e. writhing, to be monitored is induced by the intraperitoneal (i.p.) administration of dilute acetic acid. 10 milliliters of 0.6% aqueous acetic acid is used per kg of body weight. Writhing is scored during the 15 minutes following acetic acid administration. In a first step, compounds are tested at 3 to 4 increasing doses, given by intravenous route, and at one unique pretreatment time (-5 minutes before acetic acid injection). […] In a second step, this submaximal effective dose for each specific peptide is administered at various pretreatment times (i.e. -5 minutes, -60 minutes, -120 minutes and -180 minutes) prior to the administration of the acetic acid in order to determine the duration of action. Throughout the test, a control group of mice are used which are administered only the vehicle without the candidate peptide. The number of writhes are counted over a 15-minute period, starting from the time of acetic acid injection, and bioactivity, i.e. antinociception, is expressed as a percentage, and is calculated as follows:
100×(writhes in control group-writhes in treated group)/writhes in
Values higher than 100% indicate greater antinociception than at the beginning of the experiment. It is felt that the opioid peptide should be effective to reduce writhing by at least about 25% at a time of 1 hour to be considered to have long duration of in vivo action.
In addition to using this test to determine duration of antinociceptive activity, it is also used to measure the in vivo biopotency (short term) of the peptide. This value is given in the table under the heading WT-ED50 in milligrams per kg of body weight. The value is a measure of the dosage necessary to reduce the number of writhes in the mouse being tested by 50% (as compared to a control mouse) over a period of 15 minutes.

H-D-CMP-D-Phe-D-Nle-D-Arg-NH(4Pic) [Peptide 43]
μ/κ Ratio (binding affinity for KOR versus MOR) [1]: 2,500

CCCC[C@@H](NC(=O)[C@@H](Cc1ccccc1)NC(=O)[C@H](N)Cc1ccccc1)C(=O)N[C@H](CCCNC(=N)N)C(=O)N1CCNCC1 [Peptide 15, H-D-Phe-D-Phe-D-Nle-D-Arg-Ppz] (H-[dF][dF][dNle][dR]-{N(CH2CH2)2NH})
μ/κ Ratio (binding affinity for KOR versus MOR) [1]: 57,000 | Ki [1]: 0.16 nM | Ki [2]: 9100 nM | WT-ED50 (conscious male ICR mice): 0.017 mg/kg

CCCC[C@@H](NC(=O)[C@@H](Cc1ccccc1)NC(=O)[C@H](N)Cc1ccccc1)C(=O)N[C@H](CCCNC(=N)N)C(=O)NC [Peptide 2, H-D-Phe-D-Phe-D-Nle-D-Arg-NHMe] (H-[dF][dF][dNle][dR]-NHMe)
μ/κ Ratio (binding affinity for KOR versus MOR) [1]: 60,000 | Ki [1]: 0.06 nM | Ki [2]: 3620 nM | WT-ED50 (conscious male ICR mice): 0.14 mg/kg | % Antinociception 1 hr (conscious male ICR mice): 70.5% | % Antinociception 2 hr (conscious male ICR mice): 29.8%

H-D-Phe-D-Phe-D-Nle-D-Har-NH(4Pic) [Peptide 50]
μ/κ Ratio (binding affinity for KOR versus MOR) [1]: 9,300

CCNC(=O)[C@@H](CCCN)NC(=O)[C@@H](CC(C)C)NC(=O)[C@@H](Cc1ccccc1)NC(=O)[C@H](N)Cc1ccccc1 [Peptide 56, H-D-Phe-D-Phe-D-Leu-D-Orn-NHEt]
μ/κ Ratio (binding affinity for KOR versus MOR) [1]: 13,000 | Ki [1]: 0.31 nM | Ki [2]: 4150 nM | WT-ED50 (conscious male ICR mice): 0.057 mg/kg and 0.06 mg/kg | % Antinociception 1 hr (conscious male ICR mice): 76.3% | % Antinociception 2 hr (conscious male ICR mice): 60.2%

CCCC[C@@H](NC(=O)[C@@H](Cc1ccccc1)NC(=O)[C@H](N)Cc1ccccc1)C(=O)N[C@H](CCCNC(=N)N)C(=O)N1CCCCC1 [Peptide 12, H-D-Phe-D-Phe-D-Nle-D-Arg-Pip] (H-[dF][dF][dNle][dR]-Piperidide)
μ/κ Ratio (binding affinity for KOR versus MOR) [1]: 7,000 | Ki [1]: 0.15 nM | Ki [2]: 1050 nM | WT-ED50 (conscious male ICR mice): 0.07 mg/kg | % Antinociception 1 hr (conscious male ICR mice): 60.5% | % Antinociception 2 hr (conscious male ICR mice): 53.6%

CCCC[C@@H](NC(=O)[C@@H](Cc1ccccc1)NC(=O)[C@H](N)Cc1ccccc1)C(=O)N[C@H](CCCNC(=N)N)C(=O)NCc1ccccc1 [Peptide 14, H-D-Phe-D-Phe-D-Nle-D-Arg-NHBzl] (H-[dF][dF][dNle][dR]-NHBn)
μ/κ Ratio (binding affinity for KOR versus MOR) [1]: 2,000 | Ki [1]: 0.44 nM | Ki [2]: 890 nM | WT-ED50 (conscious male ICR mice): 0.14 mg/kg | % Antinociception 1 hr (conscious male ICR mice): 36%

H-D-Phe-D-Phe-D-Hle-D-Arg-NH(4Pic) [Peptide 45]
μ/κ Ratio (binding affinity for KOR versus MOR) [1]: 11,000

CCCC[C@@H](NC(=O)[C@@H](Cc1ccccc1)NC(=O)[C@H](N)Cc1ccccc1)C(=O)N[C@H](Cc1ccc(CNC(=N)N)cc1)C(=O)N1CCOCC1 [Peptide 58, H-D-Phe-D-Phe-D-Nle-D-Gmf-Mor]
μ/κ Ratio (binding affinity for KOR versus MOR) [1]: 6,500 | Ki [1]: 0.46 nM | Ki [2]: 3010 nM | WT-ED50 (conscious male ICR mice): 0.040 mg/kg

CC(C)C[C@@H](NC(=O)[C@@H](Cc1ccc(Cl)c(Cl)c1)NC(=O)[C@H](N)Cc1cccs1)C(=O)N[C@H](CCCNC(=N)N)C(=O)N1CCOCC1 [Peptide 61, H-D-Ala(2Thi)-D-3,4Cpa-D-Leu-D-Arg-Mor] (H-[d2Thi][dPhe(3,4-Cl2)][dL][dR]-Morpholide)
μ/κ Ratio (binding affinity for KOR versus MOR) [1]: 10,400 | Ki [1]: 0.15 nM | Ki [2]: 1560 nM

H-D-Phe-D-Phe-D-Lcu-D-Lys-Mor [Peptide 49]
μ/κ Ratio (binding affinity for KOR versus MOR) [1]: 92,000

CC(C)C[C@@H](NC(=O)[C@@H](Cc1ccc(Cl)cc1)NC(=O)[C@H](N)Cc1cccs1)C(=O)N[C@H](CCCNC(=N)N)C(=O)NCc1ccncc1 [Peptide 64, H-D-Ala(2Thi)-D-4Cpa-D-Leu-D-Arg-NH(4Pic)] (H-[d2Thi][dPhe(4-Cl)][dL][dR]-{NH(4-picolyl)})
Ki [1]: 0.31 nM | Ki [2]: 2380 nM

H-D-Phe-D-Phe-D-Lcu-D-Dbu-NH(4Pic) [Peptide 52]
μ/κ Ratio (binding affinity for KOR versus MOR) [1]: 92,000

CC(C)C[C@@H](NC(=O)[C@@H](Cc1ccc2ccccc2c1)NC(=O)[C@H](N)Cc1cccs1)C(=O)N[C@H](CCCNC(=N)N)C(=O)N1CCOCC1 [Peptide 63, H-D-Ala(2Thi)-D-2Nal-D-Leu-D-Arg-Mor] (H-[d2Thi][d2Nal][dL][dR]-Morpholide)
μ/κ Ratio (binding affinity for KOR versus MOR) [1]: 16,000 | Ki [1]: 0.2 nM | Ki [2]: 3170 nM | WT-ED50 (conscious male ICR mice): 0.04 mg/kg | % Antinociception 1 hr (conscious male ICR mice): 51.8% | % Antinociception 2 hr (conscious male ICR mice): 36.1%

CCCC[C@@H](NC(=O)[C@@H](Cc1ccccc1)NC(=O)[C@H](N)Cc1ccccc1)C(=O)N[C@H](CCCNC(=N)N)C(=O)NCc1cccnc1 [Peptide 54, H-D-Phe-D-Phe-D-Nle-D-Arg-NH(3Pic)] (H-[dF][dF][dNle][dR]-{NH(3-picolyl)})
μ/κ Ratio (binding affinity for KOR versus MOR) [1]: 3,100 | Ki [1]: 0.39 nM | Ki [2]: 1220 nM

H-D-Phe-D-Phe-D-Lcu-D-Lys-NHPr [Peptide 48]
μ/κ Ratio (binding affinity for KOR versus MOR) [1]: 18,000

H-D-Phe-D-Phe-D-Acp-D-Arg-NH(4Pic) [Peptide 44]
μ/κ Ratio (binding affinity for KOR versus MOR) [1]: 8,200

CC(C)C[C@@H](NC(=O)[C@@H](Cc1ccc2ccccc2c1)NC(=O)[C@H](N)Cc1ccc(F)cc1)C(=O)N[C@H](CCCNC(=N)N)C(=O)N1CCOCC1 [Peptide 62, H-D-4Fpa-D-2Nal-D-Leu-D-Arg-Mor] (H-[dPhe(4-F)][d2Nal][dL][dR]-Morpholide)
μ/κ Ratio (binding affinity for KOR versus MOR) [1]: 3,500 | Ki [1]: 0.33 nM | Ki [2]: 1140 nM

CC(C)C[C@@H](NC(=O)[C@@H](Cc1ccc(Cl)cc1)NC(=O)[C@H](N)Cc1cccs1)C(=O)N[C@H](CCCNC(=N)N)C(=O)N1CCOCC1 [Peptide 59, H-D-Ala(2Thi)-D-4Cpa-D-Leu-D-Arg-Mor] (H-[d2Thi][dPhe(4-Cl)][dL][dR]-Morpholide)
Ki [1]: 0.25 nM | Ki [2]: 3360 nM

CC(C)C[C@@H](NC(=O)[C@@H](Cc1ccc(Cl)cc1)NC(=O)[C@H](N)Cc1ccc(F)cc1)C(=O)N[C@H](CCCNC(=N)N)C(=O)N1CCOCC1 [Peptide 65, H-D-4Fpa-D-4Cpa-D-Leu-D-Arg-Mor] (H-[dPhe(4-F)][dPhe(4-Cl)][dL][dR]-Morpholide)
Ki [1]: 0.17 nM | Ki [2]: 1900 nM

H-D-Phe-D-Phe-D-Nle-D-Arg-NH-4-Ahz [Peptide 41]
μ/κ Ratio (binding affinity for KOR versus MOR) [1]: 12,000

H-D-Phe-D-Phe-D-Nle-D-Har-Mor [Peptide 51]
μ/κ Ratio (binding affinity for KOR versus MOR) [1]: 12,000

H-D-Phe-D-Phe-D-Lcu-D-Dbu-Mor [Peptide 53]
μ/κ Ratio (binding affinity for KOR versus MOR) [1]: 85,000

H-D-Phe-D-Phe-D-Nle-D-Arg-Ecp [Peptide 42]
μ/κ Ratio (binding affinity for KOR versus MOR) [1]: 27,000 | WT-ED50 (conscious male ICR mice): 0.06 mg/kg | % Antinociception 1 hr (conscious male ICR mice): 45.3% | % Antinociception 2 hr (conscious male ICR mice): 29.4%

H-D-Phe-D-Phe-D-CML-D-Oro-Mor [Peptide 46]
μ/κ Ratio (binding affinity for KOR versus MOR) [1]: 14,000

CCCC[C@@H](NC(=O)[C@@H](Cc1ccccc1)NC(=O)[C@H](N)Cc1ccccc1)C(=O)N[C@H](Cc1ccc(CN)cc1)C(=O)NCC [Peptide 55, H-D-Phe-D-Phe-D-Nle-D-Amf-NHEt] (H-[dF][dF][dNle][dPhe(4-CH2NH2)]-NHEt)
μ/κ Ratio (binding affinity for KOR versus MOR) [1]: 12,500 | Ki [1]: 0.14 nM | Ki [2]: 1750 nM

H-D-Phe-D-Phe-D-Lcu-D-Lys-NH(4Pic) [Peptide 47]
μ/κ Ratio (binding affinity for KOR versus MOR) [1]: 30,000

H-D-Phe-D-Phe-D-Nle-D-Arg-NH-4Nhz [Peptide 40]
μ/κ Ratio (binding affinity for KOR versus MOR) [1]: 3,800
